Experimental findings from ChEMBL document CHEMBL1817633, “Evaluation of a cell penetrating prenylated peptide lacking an intrinsic fluorophore via in situ click reaction” (Bioorg Med Chem Lett, 2011) are described below.

Structures are written as SMILES. Peptide text beside a SMILES is read from it. * marks the point of attachment. Geranylgeranyl = CC(C)=CCC/C(C)=C/CC/C(C)=C/CC/C(C)=C/C*; X1 = O=C(O)c1cc(C(=O)*)ccc1-c1c2ccc(=O)cc-2oc2cc(O)ccc12; Pent4ynoyl = C#CCCC(=O)*

Holding throughout (type): ADME, cell-based
The test system of data set [1] is HeLa. Nature of the data set: Cellular uptake in human HeLa cells at 1 uM after 2 hrs by confocal laser scanning microscopy.
Data set [2] has as its system HeLa. Description: Cellular uptake in human HeLa cells at 1 to 5 uM treated for 1 hr followed by washout measured after 1 hr by flow cytometry.
For data set [3], the system named is HeLa. Nature of the data set: Cellular uptake in human HeLa cells assessed as nuclear localization at 1 uM after 2 hrs by confocal laser scanning microscopy.

Regarding `C#CCCC(=O)N[C@@H](CCCCNC(=O)c1ccc(-c2c3ccc(=O)cc-3oc3cc(O)ccc23)c(C(=O)O)c1)C(=O)N[C@@H](C)C(=O)N[C@@H](CCCCN)C(=O)N[C@@H](CCCCN)C(=O)N[C@@H](CO)C(=O)N[C@@H](CCCNC(=N)N)C(=O)N[C@@H](CCCNC(=N)N)C(=O)N[C@@H](CSC/C=C(\C)CC/C=C(\C)CC/C=C(\C)CCC=C(C)C)C(N)=O` (Pent4ynoyl-K(X1)AKKSRRC(Geranylgeranyl)-NH2), the Drug uptake result with HeLa [1] was “Active”; in the data set with HeLa [2] it was “Active”; with HeLa [3] it was “Not Active”.
Consider `C#CCCC(=O)N[C@@H](CCCCNC(C)=O)C(=O)N[C@@H](C)C(=O)N[C@@H](CCCCN)C(=O)N[C@@H](CCCCN)C(=O)N[C@@H](CO)C(=O)N[C@@H](CCCNC(=N)N)C(=O)N[C@@H](CCCNC(=N)N)C(=O)N[C@@H](CSC/C=C(\C)CC/C=C(\C)CC/C=C(\C)CCC=C(C)C)C(N)=O` (Pent4ynoyl-K(Ac)AKKSRRC(Geranylgeranyl)-NH2), for which the Drug uptake entry in the data set with HeLa [1] and in the data set on HeLa [3] was “Active” in each case.
